Test results reported in the RepoRT retention time repository (doi:10.1007/s11306-011-0298-z).

Experiment: RP, Waters ACQUITY UPLC HSS T3, 100 × 2.1 mm, 1.8 µm, 30 °C, 0.3 mL/min, estimated dead time 0.73 min; A: water + 0.1% formic acid, pH 3; B: methanol + 0.1% formic acid, pH 3; gradient (min/%B) 0/0 6/0 56/100 60/100
Conditions: stereoisomer not certain

| Structure (SMILES) | LC retention time [min] |
| --- | --- |
| CC1OC(OCC2OC(Oc3cc4c(O)cc(O)cc4[o+]c3-c3ccc(O)c(O)c3)C(O)C(O)C2O)C(O)C(O)C1O (stereo unspecified) [cyanidin-3-rutinoside] | 23.1 |
| O=c1[nH]c(=O)c2[nH]cnc2[nH]1 [xanthine] | 6.01 |
| OCC1OC(OCC2OC(O)C(O)C(O)C2O)C(O)C(O)C1O (stereo unspecified) [melibiose] | 1.4 |
| O=C(O)C(O)C(O)C(O)C(O)C(=O)O (stereo unspecified) [mucic acid] | 1.3 |
| COc1cc(C=O)ccc1O [vanillin] | 21.5 |
| Nc1ccccc1C(=O)CC(N)C(=O)O [L-kynurenine] | 11 |
| Oc1cc(O)c2c(c1)OC1(c3ccc(O)c(O)c3)Oc3cc(O)c4c(c3C2C1O)OC(c1ccc(O)c(O)c1)C(O)C4 (stereo unspecified) [procyanidin-A2] | 25.2 |
| Cc1ncc(CO)c(CO)c1O [pyridoxine] | 4.9 |
| COc1cc(-c2oc3cc(=O)cc4occc(c2OC2OC(CO)C(O)C(O)C2O)c43)cc(OC)c1O (stereo unspecified) [vitisin B] | 27 |
| O=c1cc(-c2ccc(O)cc2)oc2cc(OC3OC(CO)C(O)C(O)C3OC3OCC(O)(CO)C3O)cc(O)c12 (stereo unspecified) [apiin] | 29.6 |
| O=C(O)CO [glycolic acid] | 2.3 |
| O=C1CCCN1 [2-pyrrolidinone] | 5.9 |
| Cc1ncc(CO)c(C=O)c1O [pyridoxal] | 3.77 |
| N[C@@H](CS)C(=O)O [L-cysteine] | 1.23 |
| NC(=O)C[C@H](N)C(=O)O [L-asparagine] | 1.27 |
| O=c1c(OC2OC(C(O)CO)C(O)C2O)c(-c2ccc(O)c(O)c2)oc2cc(O)cc(O)c12 (stereo unspecified) [quercetin 3-glucoside] | 29.1 |
| C=CC(C)(CCC=C(C)C)OC(=O)c1ccccc1 (stereo unspecified) [linalyl benzoate] | 50.8 |
| O=C(O)c1cccnc1 [nicotinic acid] | 2.98 |
| CCCCCCCC/C=C\CCCCCCCCCC(=O)OC [methyl cis-11-eicosenoate] | 57.9 |
| CC(O)C(=O)O (stereo unspecified) [lactic acid] | 2.51 |
| Cc1ncc(COP(=O)(O)O)c(CN)c1O [pyridoxamine 5-phosphate] | 1.41 |
| Oc1cc(O)c2c(c1)OC(c1cc(O)c(O)c(O)c1)C(O)C2 (stereo unspecified) [epigallocatechin] | 16.5 |

| Structure (SMILES) | LC retention time [min] |
| --- | --- |
| O=C(C=Cc1ccc(O)c(O)c1)OC1CC(OC(=O)C=Cc2ccc(O)c(O)c2)(C(=O)O)CC(O)C1O (stereo unspecified) [1,3 - dicaffeoylquinic acid] | 24.9 |
| O=c1c(-c2ccc(O)cc2)coc2cc(O)cc(O)c12 [genistein] | 35.1 |
| Nc1ncnc2c1ncn2C1OC(COP(=O)(O)OP(=O)(O)OCC2OC([n+]3cccc(C(=O)O)c3)C(O)C2O)C(O)C1O (stereo unspecified) [nicotinic acid adenin dinucleotide] | 8.3 |
| OCC1OC(OC2C(Oc3cc4c(O)cc(O)cc4[o+]c3-c3ccc(O)c(O)c3)OC(CO)C(O)C2O)C(O)C(O)C1O (stereo unspecified) [Cyanidin 3-sophoroside] | 21.4 |
| NC(=O)CCCCC1CCSS1 (stereo not drawn) [Alpha lipoamide] | 29 |
| COc1cc(C=O)cc(OC)c1O [syringaldehyde] | 23.5 |
| COc1cc(-c2oc3cc(O)cc(O)c3c(=O)c2O)ccc1O [isorhamnetin] | 37.1 |
| COC1OC(C(=O)O)C(O)C(O)C1O (stereo unspecified) [methyl-glucuronide] | 2.4 |
| CC(CCC(=O)NCCS(=O)(=O)O)C1CCC2C3C(O)CC4CC(O)CCC4(C)C3CC(O)C12C (stereo unspecified) [taurocholic acid] | 42.3 |
| CCC=CCC=CCC=CCCCCCCCC(=O)O [linolenic acid] | 52.3 |
| CN(C)c1ccc(C=CC=O)cc1 [4-dimethylaminocinnamaldehyde] | 34.5 |
| CC(=O)C(=O)O [pyruvic acid] | 1.79 |
| O=c1ccc2ccc(O)cc2o1 [umbelliferone] | 23.9 |
| O=c1oc2c(O)c(O)cc3c(=O)oc4c(O)c(O)cc1c4c23 [ellagic acid] | 30.2 |
| CC(C)CCCC(C)C1CCC2C3CC4OC45CC(O)CCC5(C)C3CCC12C (racemic) | 57.7 |
| CC(O)(CC(=O)O)CC(=O)O [3-hydroxy-3-methyl glutaric acid] | 7.04 |
| Nc1ccccc1C(=O)O [anthranilic acid] | 19.1 |
| COc1cc(/C=C/C(=O)O)ccc1O [ferulic acid] | 25.9 |
| Oc1ccc(C2Oc3cc(O)cc4c3C2c2cc(O)cc3c2C(c2cc(O)cc5c2C4C(c2ccc(O)cc2)O5)C(c2ccc(O)cc2)O3)cc1 (stereo unspecified) [a-viniferin] | 33 |
| O=Cc1ccc(O)c(O)c1 [3,4 dihydroxybenzaldehyde] | 16.2 |
| NC(=O)NCCC[C@H](N)C(=O)O [L-citrulline] | 1.4 |
| O=C1CC(c2ccc(O)cc2)Oc2cc(O)cc(O)c21 (stereo unspecified) [naringenin] | 33.8 |

| Structure (SMILES) | LC retention time [min] |
| --- | --- |
| CCCCCCCCCCCCCC(=O)OC [methyl myristate] | 54.4 |
| CCCCCCCC/C=C\CCCCCCCCCC(=O)O [cis-11-eicosenoic acid] | 56.2 |
| COc1cc(O)c2c(=O)c(O)c(-c3ccc(O)c(O)c3)oc2c1 [rhamnetin] | 38.9 |
| CCC=CCC=CCC=CCCCCCCCC(=O)OC [methyl linolenate] | 54.5 |
| CCC[C@H](N)C(=O)O [L-norvaline] | 2.3 |
| O=C(C=Cc1ccc(O)c(O)c1)OC1CC(O)(C(=O)O)CC(O)C1O (stereo unspecified) [chlorogenic acid] | 18 |
| COc1cc(/C=C/CO)cc(OC)c1O [sinapyl alcohol] | 23.6 |
| O=C(C=Cc1ccc(O)c(O)c1)OC(Cc1ccc(O)c(O)c1)C(=O)O (stereo unspecified) [rosmarinic acid] | 30 |
| CCCCCC=CCC=CCC=CCC=CCCCC(=O)O [arachidonic acid] | 53.5 |
| CC(=O)OCC1OC(Oc2c(-c3ccc(O)c(O)c3)oc3cc(O)cc(O)c3c2=O)C(O)C(O)C1O (stereo unspecified) [quercetin-3-O-glucose-6''-acetate] | 31 |
| CC(=O)C=CC1C(C)CCCC1(C)C (stereo not drawn) [dihidro alpha ionone] | 46.1 |
| COc1cc(-c2oc3cc(=O)cc(O)c-3cc2OC2OC(COC(=O)C=Cc3ccc(O)cc3)C(O)C(O)C2O)ccc1O (stereo unspecified) [peonidin-3-O-(6-p-coumaroyl)-glucoside] | 33 |
| COc1cc2ccc(=O)oc2c(OC2OC(CO)C(O)C(O)C2O)c1O (stereo unspecified) [fraxin] | 20.9 |
| O=C(O)c1cc(O)cc(O)c1 [3,5-dihydroxybenzoic acid] | 14.3 |
| CCCCCCCCCCCCCCCCCCCCC(=O)OC [Methyl henicosanoate] | 60.4 |
| O=C(O)[C@H](O)[C@@H](O)C(=O)O [L-(+)-tartaric acid] | 1.51 |
| COc1cc(C(=O)O)ccc1O [vanillic acid] | 20.3 |
| O=C(OCc1ccccc1)c1ccccc1 [benzyl benzoate] | 43.5 |
| O=c1c(O)c(-c2ccc(O)cc2O)oc2cc(O)cc(O)c12 [morin] | 31.9 |
| O=C1CC(c2ccc(O)c(O)c2)c2c(cc(O)c3c2OC(c2ccc(O)c(O)c2)C(O)C3)O1 (stereo unspecified) [caffeic acid+catechin condensation product] | 26.1 |
| OCC1OC(OCC2OC(OCC3OC(OC4(CO)OC(CO)C(O)C4O)C(O)C(O)C3O)C(O)C(O)C2O)C(O)C(O)C1O (stereo unspecified) [stachyose] | 2.4 |
| NC(N)=O [urea] | 1.3 |

| Structure (SMILES) | LC retention time [min] |
| --- | --- |
| CC(=O)CCC=C(C)CCC=C(C)C [geranyl acetone] | 46.5 |
| COc1cc(-c2oc3cc(=O)cc4oc(C)cc(c2OC2OC(CO)C(O)C(O)C2O)c43)cc(OC)c1O (stereo unspecified) [methylpyrano malvidin 3-glucoside] | 28.6 |
| CCCCCCCCOC1OC(CO)C(O)C(O)C1O (stereo unspecified) [octyl glucopyranoside] | 37.6 |
| CC[C@H](C)[C@H](N)C(=O)O [L-isoleucine] | 4.62 |
| O=c1c(OC2OC(COC3OCC(O)C(O)C3O)C(O)C(O)C2O)c(-c2ccc(O)c(O)c2)oc2cc(O)cc(O)c12 (stereo unspecified) [peltatoside] | 28.3 |
| CC(C)C(O)(CC(=O)O)C(=O)O (stereo unspecified) [isopropyl malic acid] | 18.1 |
| C=C(C)C1CCC2(C)CCC3(C)C(CCC4C5(C)CCC(O)C(C)(C)C5CCC43C)C12 (stereo unspecified) [lupeol] | 60 |
| O=C(O)CCCCC1SCC2NC(=O)NC21 (stereo unspecified) [biotin] | 21.6 |
| Cc1c[nH]c2ccccc12 [3-methyl indole] | 34.1 |
| COc1cc(C=Cc2ccc(O)cc2)cc(OC)c1 [pterostilbene] | 41.4 |
| O=C(O)C=Cc1ccccc1O [o-coumaric acid] | 28.1 |
| COc1cc(-c2[o+]c3cc(O)cc(O)c3cc2OC2OCC(O)C(O)C2O)ccc1O (stereo unspecified) [peonidin-3-arabinoside] | 24.8 |
| N[C@@H](CCO)C(=O)O [L-homoserine] | 1.29 |
| O=C1CC(c2ccc(O)c(O)c2)Oc2cc(O)cc(O)c21 (stereo unspecified) [eriodictyol] | 31 |
| O=c1cc(-c2ccc(O)c(O)c2)oc2c(C3OC(CO)C(O)C(O)C3O)c(O)cc(O)c12 (stereo unspecified) [orientin] | 25.5 |
| COC(=O)c1ccccc1O [methylsalicylate ester] | 34.5 |
| COc1ccccc1O [guaiacol] | 22.5 |
| O=c1cc(-c2ccccc2)oc2cc(O)cc(O)c12 [chrysin] | 40.9 |
| C=C1CC23CC1(O)CCC2C12C=CC(O)C(C)(C(=O)O1)C2C3C(=O)O (stereo unspecified) [gibberellic acid] | 25.5 |
| COc1ccc(C=O)cc1 [anisaldehyde] | 27.1 |
